Data reported in patent publication US20040224958A1, “Pyridopyrimidinone derivatives for treatment of neurodegenerative disease” (priority 2000, published 2004).

Experiments:
cdk2/cyclinA = cdk2/cyclinA (Homo sapiens, UniProt P24941); experiment: Cyclin-Dependent Kinase Assay cdk2/cyclinA; conditions: cdk2/A IC50
cdk2/cyclinE = cdk2/cyclinE (Homo sapiens, UniProt P24941); experiment: Cyclin-Dependent Kinase Assay cdk2/cyclinE; conditions: cdk2/E IC50
cdk4/D = cdk4/D (Homo sapiens, UniProt P11802); experiment: Cyclin-Dependent Kinase 4 (cdk4) Assay; assay type: biochemical; conditions: read-out: cdk4/D IC50
cdk4/D, sequence (P11802 whole entry): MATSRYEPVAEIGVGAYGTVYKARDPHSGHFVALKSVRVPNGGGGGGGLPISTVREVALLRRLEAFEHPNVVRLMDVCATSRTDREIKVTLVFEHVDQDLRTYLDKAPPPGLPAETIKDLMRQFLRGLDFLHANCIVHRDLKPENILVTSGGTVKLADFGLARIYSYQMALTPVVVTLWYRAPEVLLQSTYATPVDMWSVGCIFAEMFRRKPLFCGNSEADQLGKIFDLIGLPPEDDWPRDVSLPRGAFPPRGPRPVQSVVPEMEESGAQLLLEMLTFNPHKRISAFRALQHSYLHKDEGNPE
cdk4/D, sequence (P24385 whole entry, further chain): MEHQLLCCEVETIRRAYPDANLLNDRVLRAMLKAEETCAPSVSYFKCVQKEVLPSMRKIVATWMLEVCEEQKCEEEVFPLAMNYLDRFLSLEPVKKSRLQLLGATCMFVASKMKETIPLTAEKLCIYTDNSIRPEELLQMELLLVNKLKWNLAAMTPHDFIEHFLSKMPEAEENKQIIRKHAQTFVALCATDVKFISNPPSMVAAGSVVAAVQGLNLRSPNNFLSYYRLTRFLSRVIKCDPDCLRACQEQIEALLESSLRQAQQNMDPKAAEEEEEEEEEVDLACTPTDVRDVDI

cdc2/cyclinB = cdc2/cyclinB (Homo sapiens, UniProt P06493); experiment: Cyclin-Dependent Kinase Assay cdc2/cyclinB
cdc2/cyclinB, sequence (P06493 whole entry): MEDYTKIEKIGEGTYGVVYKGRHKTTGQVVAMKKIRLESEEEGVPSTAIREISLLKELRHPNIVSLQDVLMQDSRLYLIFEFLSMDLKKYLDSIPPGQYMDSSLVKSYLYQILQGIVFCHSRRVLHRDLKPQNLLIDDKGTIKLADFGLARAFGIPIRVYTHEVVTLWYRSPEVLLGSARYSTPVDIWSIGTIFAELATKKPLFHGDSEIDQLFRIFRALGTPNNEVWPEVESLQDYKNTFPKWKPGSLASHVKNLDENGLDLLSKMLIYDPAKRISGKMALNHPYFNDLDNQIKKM
cdc2/cyclinB, sequence (P14635 whole entry, further chain): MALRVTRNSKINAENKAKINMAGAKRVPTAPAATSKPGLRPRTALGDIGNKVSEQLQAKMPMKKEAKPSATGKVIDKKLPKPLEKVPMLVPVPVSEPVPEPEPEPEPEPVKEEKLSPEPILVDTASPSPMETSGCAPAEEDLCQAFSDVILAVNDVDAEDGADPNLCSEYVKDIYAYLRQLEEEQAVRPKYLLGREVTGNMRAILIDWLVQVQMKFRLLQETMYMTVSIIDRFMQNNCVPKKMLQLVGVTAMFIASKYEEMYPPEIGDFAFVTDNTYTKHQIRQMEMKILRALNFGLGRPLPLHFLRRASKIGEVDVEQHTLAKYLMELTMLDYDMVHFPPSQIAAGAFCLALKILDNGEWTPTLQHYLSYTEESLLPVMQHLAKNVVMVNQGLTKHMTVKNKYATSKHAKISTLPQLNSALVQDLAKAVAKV
Protocol: Cyclin-Dependent Kinase Assays (cdk2/cyclinE, cdk2/cyclinA, cdc2/cyclinB)
All components except the ATP were added to the wells, and the plate was placed on a plate mixer for 2 minutes. The reaction was begun by addition of [^32P]ATP, and the plate was incubated at 25° C. for 15 minutes. The reaction was terminated by addition of 0.1 mL of 20% TCA. The plate was kept at 4° C. for at least 1 hour to allow the substrate to precipitate. The wells were then washed five times with 0.2 mL of 10% TCA and ^32p incorporation determined with a beta plate counter (Wallac Inc., Gaithersburg, Md.).

Cdk5/p25 = Cdk5/p25 (Homo sapiens, UniProt Q00535); experiment: Cyclin-Dependent Kinase 5 High Throughput Screening (cdk5-HTS) Assay; assay type: biochemical; conditions: high throughput screen
Method in brief: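 Cdk5/p25 (1.0 μg/mL) phosphorylates GST-RbCOOH (20 μg/mL) in 50 mM Tris pH 7.4 with 10 mM MgCl2 and 20 μM ATP spiked with [γ33P]ATP, 30 min at room temperature. After EDTA stop, substrate captured on glutathione-coated plates; 33P incorporation counted by scintillation; IC50 determined.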

SMILES	melting point	IC50 (cdk2/cyclinA)	IC50 (cdk2/cyclinE)	IC50 (cdk4/D)	IC50 (cdc2/cyclinB)	IC50 (Cdk5/p25)
CCCCNc1ncc2ccc(=O)n(C)c2n1 [Example 64, 2-Butylamino-8-methyl-8H-pyrido[2,3-d]pyrimidin-7-one]	146 to 147 °C	–	–	–	–	–
O=c1ccc2cnc(Nc3ccc(F)cc3)nc2n1C1CCCCCC1 [Example 184, 8-Cycloheptyl-2-(4-fluoro-phenylamino)-8H-pyrido[2,3-d]pyrimidin-7-one]	198 to 199 °C	–	–	–	–	–
CCNc1nc(Nc2ccccc2)ncc1C(C)=CC(=O)OCC [Example 73, 3-(4-Ethylamino-2-phenylamino-pyrimidin-5-yl)-but-2-enoic acid ethyl ester]	148 to 150 °C	–	–	–	–	–
CC(C)n1c(=O)ccc2cnc(Nc3ccc(OCCN4CCOCC4)cc3)nc21 [Example 141, 8-Isopropyl-2-[4-(2-morpholin-4-yl-ethoxy)-phenylamino]-8H-pyrido[2,3-d]pyrimidin-7-one]	118 to 119 °C	–	–	–	–	–
COc1ccc(Cn2c(=O)ccc3cnc(Nc4ccccc4)nc32)cc1 [Example 58, 8-(4-Methoxybenzyl)-2-phenylamino-8H-pyrido[2,3-d]pyrimidin-7-one]	215 to 216 °C	–	–	–	–	–
CCNc1ncc2ccc(=O)n(C)c2n1 [Example 65, 2-Ethylamino-8-methyl-8H-pyrido[2,3-d]pyrimidin-7-one]	194 to 195 °C	–	–	–	–	–
O=c1ccc2cnc(Nc3ccc(N4CCC(CCO)CC4)cc3)nc2n1C1CCCCC1 [Example 216, 8-Cyclohexyl-2-{4-[4-(2-hydroxy-ethyl)-piperidin-1-yl]-phenylamino}-8H-pyrido[2,3-d]pyrimidin-7-one]	236 to 237 °C	–	–	–	–	–
CC(C)n1c(=O)ccc2cnc(Nc3ccccc3)nc21 [Example 43, 8-Isopropyl-2-phenylamino-8H-pyrido[2,3-d]pyrimidin-7-one]	170 to 171 °C	–	–	–	–	–
O=c1ccc2cnc(Nc3ccc(N4CCCCC4CO)cc3)nc2n1C1CCCC1 (stereo not drawn) [Example 207, 8-Cyclopentyl-2-[4-(2-hydroxymethyl-piperidin-1-yl)-phenylamino]-8H-pyrido[2,3-d]pyrimidin-7-one]	135 to 136 °C	–	–	–	–	–
CCOC(=O)N1CCC(n2c(=O)ccc3cnc(Nc4ccc(N5CCCCC5)cc4)nc32)CC1 [Example 246, 4-[7-Oxo-2-(4-piperidin-1-yl-phenylamino)-7H-pyrido[2,3-d]pyrimidin-8-yl]-piperidine-1-carboxylic acid ethyl ester]	231 to 233 °C	–	–	–	–	–
O=c1ccc2cnc(Nc3ccc(N4CCCC(CN5CCOCC5)C4)cc3)nc2n1C1CC2CCC1C2 (stereo not drawn) [Example 263, 8-Bicyclo[2.2.1]hept-2-yl-2-[4-(3-morpholin-4-ylmethyl-piperidin-1-yl)-phenylamino]-8H-pyrido[2,3-d]pyrimidin-7-one]	155 to 157 °C	–	–	–	–	–
CCC(CC)n1c(=O)ccc2cnc(Nc3ccc(F)c(F)c3)nc21 [Example 509, 2-(3,4-Difluoro-phenylamino)-8-(I-ethyl-propyl)-8H-pyrido[2,3-d]pyrimidin-7-one]	–	240 nM	64 nM	98 nM	190 nM	26 nM
CCn1c(=O)ccc2cnc(Nc3ccc(O)cc3F)nc21 [Example 289, 8-Ethyl-2-(2-fluoro-4-hydroxy-phenylamino)-8H-pyrido[2,3-d]pyrimidin-7-one]	–	2000 nM	1160 nM	3250 nM	1250 nM	720 nM
CCC(C)n1c(=O)ccc2cnc(Nc3ccc(C#N)cc3)nc21 (stereo not drawn) [Example 474, 4-(8-sec-Butyl-7-oxo-7,8-dihydro-pyrido[2,3-d]pyrimidin-2-ylamino)-benzonitrile]	–	110 nM	140 nM	210 nM	240 nM	41 nM
CC(C)n1c(=O)ccc2cnc(Nc3ccc(S(N)(=O)=O)cc3)nc21 [Example 418, 4-(8-Isopropyl-7-oxo-7,8-dihydro-pyrido[2,3-d]pyrimidin-2-ylamino)-benzenesulfonamide]	–	33 nM	27 nM	130 nM	90 nM	15 nM
Cc1ccc(Nc2ncc3ccc(=O)n(CC4CC4)c3n2)cc1NS(C)(=O)=O [Example 592, N-[5-(8-Cyclopropylmethyl-7-oxo-7,8-dihydro-pyrido[2,3-d]pyrimidin-2-ylamino)-2-methyl-phenyl]-methanesulfonamide]	–	310 nM	71 nM	200 nM	430 nM	230 nM

SMILES	melting point	IC50 (cdk2/cyclinA)	IC50 (cdk2/cyclinE)	IC50 (cdk4/D)	IC50 (cdc2/cyclinB)	IC50 (Cdk5/p25)
COc1cc(Nc2ncc3ccc(=O)n(C4CCCC4)c3n2)cc(C(F)(F)F)c1 [Example 543, 8-Cyclopentyl-2-(3-methoxy-5-trifluoromethyl-phenylamino)-8H-pyrido[2,3-d]pyrimidin-7-one]	–	1700 nM	500 nM	280 nM	550 nM	210 nM
CCCn1c(=O)ccc2cnc(Nc3ccc(OC)cc3)nc21 [Example 329, 2-(4-Methoxy-phenylamino)-8-propyl-8H-pyrido[2,3-d]pyrimidin-^7-one]	–	425 nM	275 nM	315 nM	320 nM	160 nM
CCCCn1c(=O)ccc2cnc(Nc3ccc(Br)c(C(F)(F)F)c3)nc21 [Example 374, 2-(4-Bromo-3-trifluoromethyl-phenylamino)-8-butyl-8H-pyrido[2,3-d]pyrimidin-7-one]	–	2880 nM	668 nM	2940 nM	949 nM	379 nM
CCCCn1c(=O)ccc2cnc(Nc3ccc(F)cc3)nc21 [Example 387, 8-Butyl-2-(4-fluoro-phenylamino)-8H-pyrido[2,3-d]pyrimidin-7-one]	–	160 nM	80 nM	285 nM	128 nM	108 nM
CCC(C)n1c(=O)ccc2cnc(Nc3cc(OC)c(OC)c(OC)c3)nc21 (stereo not drawn) [Example 457, 8-sec-Butyl-2-(3,4,5-trimethoxy-phenylamino)-8H-pyrido[2,3-d]pyrimidin-7-one]	–	760 nM	250 nM	2400 nM	340 nM	280 nM
O=c1ccc2cnc(Nc3cc(F)cc(F)c3)nc2n1C1CCCC1 [Example 548, 8-Cyclopentyl-2-(3,5-difluoro-phenylamino)-8H-pyrido[2,3-d]pyrimidin-7-one]	–	200 nM	180 nM	180 nM	290 nM	99 nM
CCCCn1c(=O)ccc2cnc(Nc3ccc(C)c(Cl)c3)nc21 [Example 400, 8-Butyl-2-(3-chloro-4-methyl-phenylamino)-8H-pyrido[2,3-d]pyrimidin-7-one]	–	480 nM	56 nM	170 nM	120 nM	38 nM
CCC(CC)n1c(=O)ccc2cnc(Nc3ccc(Cl)c(Cl)c3)nc21 [Example 511, 2-(3,4-Dichloro-phenylamino)-8-(1-ethyl-propyl)-8H-pyrido[2,3-d]pyrimidin-7-one]	–	290 nM	160 nM	220 nM	140 nM	50 nM
O=C1CSc2ccc(Nc3ncc4ccc(=O)n(C5CCCC5)c4n3)cc2N1 [Example 556, 8-Cyclopentyl-2-(3-oxo-3,4-dihydro-2H-1,4-benzothiazin-6-ylamino)-8H-pyrido[2,3-d]pyrimidin-7-one]	–	16 nM	40 nM	19 nM	30 nM	9 nM
CCCn1c(=O)ccc2cnc(Nc3ccc4cn[nH]c4c3)nc21 [Example 358, 2-(1H-Indazol-6-ylamino)-8-propyl-8H-pyrido[2,3-d]pyrimidin-7-one]	–	83 nM	180 nM	300 nM	160 nM	90 nM
CCCn1c(=O)ccc2cnc(Nc3ccc(OC)c(OC)c3)nc21 [Example 331, 2-(3,4-Dimethoxy-phenylamino)-8-propyl-8H-pyrido[2,3-d]pyrimidin-7-one]	–	875 nM	950 nM	2000 nM	415 nM	160 nM
CC(C)n1c(=O)ccc2cnc(Nc3ccc4cn[nH]c4c3)nc21 [Example 438, 2-(1H-Indazol-6-ylamino)-8-isopropyl-8H-pyrido[2,3-d]pyrimidin-7-one]	–	380 nM	690 nM	1110 nM	955 nM	215 nM
CCC(CC)n1c(=O)ccc2cnc(Nc3ccc(F)c(C(F)(F)F)c3)nc21 [Example 502, 8-(1-Ethyl-propyl)-2-(4-fluoro-3-trifluoromethyl-phenylamino)-8H-pyrido[2,3-d]pyrimidin-7-one]	–	360 nM	68 nM	350 nM	100 nM	21 nM
CCn1c(=O)ccc2cnc(Nc3ccc(F)c(F)c3)nc21 [Example 301, 2-(3,4-Difluoro-phenylamino)-8-ethyl-8H-pyrido[2,3-d]pyrimidin-7-one]	–	830 nM	320 nM	140 nM	600 nM	120 nM
CCCn1c(=O)ccc2cnc(Nc3ccc(F)cc3F)nc21 [Example 321, 2-(2,4-Difluoro-phenylamino)-8-propyl-8H-pyrido[2,3-d]pyrimidin-7-one]	–	3160 nM	1110 nM	3640 nM	1240 nM	648 nM
